pIC50: −log10 of the molar value.
Tests used:
[1] = molecular target: mTOR (human recombinant aa mTOR 1360-2549) (Homo sapiens (Human), UniProt P42345); assay: mTOR enzymatic test by TR-FRET (phosphorylation of GFP-4EBP1); type: biochemical
Procedure, shortened: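 TR-FRET detection of GFP-4EBP1 phosphorylation by a terbium-labelled anti-phospho-Thr46 antibody. Kinase reaction ran 30 min at room temperature, was quenched with EDTA (10 mM final) plus Tb-antibody (2 nM final) and left 60 min. Emission at 520 and 490 nm after 340 nm excitation, reported as the 520/490 ratio.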

Akt-pS473 in U87MG cells = settings: Homo sapiens, U-87 MG; for IC50: read-out: U87 Akt-pS473 % Inhibition or IC50, nM (IC50), U87MG cells
U87MG tumour cells = assay: Test of in vitro proliferation of U87MG tumour cells; type: cell-based; settings: Homo sapiens, U-87 MG, 72 h, U87MG cells, 72 hours; read-out: U87 Cell Proliferation IC50
Method: Model 4: Test of in vitro Proliferation of U87MG Tumour Cells.
The cell growth is determined with the reagent CellTiter 96 AQueous One Solution Cell Proliferation Assay from Promega (Cat. No. G3581).

PI3Kα (p110α/p85α) = PI3Kα (p110α/p85α) (Homo sapiens (Human), UniProt P42336); assay: PI3Kα enzymatic test by measuring the consumption of ATP; type: biochemical
Procedure, shortened: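 p110α/p85α (1.7 μg/ml) with 50 μM PIP2 and 2 μM ATP in pH 7.5 Tris buffer with EGTA, MgCl2, Chaps, DTT; reaction 90 min. Remaining ATP measured by luciferin/luciferase luminescence; IC50 from threefold serial dilutions spanning at least 10 000-fold.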

mTOR (human recombinant aa mTOR 1360-2549), sequence (P42345 1360-2549): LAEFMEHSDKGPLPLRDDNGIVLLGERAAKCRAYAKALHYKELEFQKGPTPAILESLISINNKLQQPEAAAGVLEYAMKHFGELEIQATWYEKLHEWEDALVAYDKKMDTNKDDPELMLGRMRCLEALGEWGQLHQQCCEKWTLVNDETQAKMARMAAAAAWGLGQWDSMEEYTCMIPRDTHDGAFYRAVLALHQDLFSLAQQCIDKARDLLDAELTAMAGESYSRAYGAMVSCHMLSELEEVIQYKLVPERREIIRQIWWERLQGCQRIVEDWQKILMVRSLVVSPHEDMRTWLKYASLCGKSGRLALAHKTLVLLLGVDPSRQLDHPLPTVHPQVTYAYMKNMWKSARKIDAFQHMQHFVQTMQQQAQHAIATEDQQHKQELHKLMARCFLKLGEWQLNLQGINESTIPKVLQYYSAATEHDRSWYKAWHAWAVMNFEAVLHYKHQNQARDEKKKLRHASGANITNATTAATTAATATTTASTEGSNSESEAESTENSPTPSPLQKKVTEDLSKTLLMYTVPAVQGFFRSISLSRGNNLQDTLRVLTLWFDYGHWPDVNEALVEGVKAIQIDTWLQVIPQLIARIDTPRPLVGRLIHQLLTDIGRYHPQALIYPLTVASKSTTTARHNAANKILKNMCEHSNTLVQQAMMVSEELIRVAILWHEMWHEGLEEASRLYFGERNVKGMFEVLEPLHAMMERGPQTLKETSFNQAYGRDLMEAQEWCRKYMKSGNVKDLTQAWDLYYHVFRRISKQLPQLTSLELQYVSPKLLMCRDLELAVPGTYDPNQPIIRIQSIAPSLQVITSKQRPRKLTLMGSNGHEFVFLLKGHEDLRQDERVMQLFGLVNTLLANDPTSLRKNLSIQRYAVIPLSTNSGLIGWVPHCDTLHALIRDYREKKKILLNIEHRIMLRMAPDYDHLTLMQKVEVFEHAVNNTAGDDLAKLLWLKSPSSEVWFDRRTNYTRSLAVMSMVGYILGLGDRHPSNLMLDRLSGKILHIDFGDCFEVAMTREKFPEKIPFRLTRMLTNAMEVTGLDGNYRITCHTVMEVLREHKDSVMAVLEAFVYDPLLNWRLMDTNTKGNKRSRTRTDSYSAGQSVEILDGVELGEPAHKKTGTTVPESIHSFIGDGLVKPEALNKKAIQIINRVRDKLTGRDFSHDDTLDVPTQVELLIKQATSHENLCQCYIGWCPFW
PI3Kα (p110α/p85α), sequence (P42336 whole entry): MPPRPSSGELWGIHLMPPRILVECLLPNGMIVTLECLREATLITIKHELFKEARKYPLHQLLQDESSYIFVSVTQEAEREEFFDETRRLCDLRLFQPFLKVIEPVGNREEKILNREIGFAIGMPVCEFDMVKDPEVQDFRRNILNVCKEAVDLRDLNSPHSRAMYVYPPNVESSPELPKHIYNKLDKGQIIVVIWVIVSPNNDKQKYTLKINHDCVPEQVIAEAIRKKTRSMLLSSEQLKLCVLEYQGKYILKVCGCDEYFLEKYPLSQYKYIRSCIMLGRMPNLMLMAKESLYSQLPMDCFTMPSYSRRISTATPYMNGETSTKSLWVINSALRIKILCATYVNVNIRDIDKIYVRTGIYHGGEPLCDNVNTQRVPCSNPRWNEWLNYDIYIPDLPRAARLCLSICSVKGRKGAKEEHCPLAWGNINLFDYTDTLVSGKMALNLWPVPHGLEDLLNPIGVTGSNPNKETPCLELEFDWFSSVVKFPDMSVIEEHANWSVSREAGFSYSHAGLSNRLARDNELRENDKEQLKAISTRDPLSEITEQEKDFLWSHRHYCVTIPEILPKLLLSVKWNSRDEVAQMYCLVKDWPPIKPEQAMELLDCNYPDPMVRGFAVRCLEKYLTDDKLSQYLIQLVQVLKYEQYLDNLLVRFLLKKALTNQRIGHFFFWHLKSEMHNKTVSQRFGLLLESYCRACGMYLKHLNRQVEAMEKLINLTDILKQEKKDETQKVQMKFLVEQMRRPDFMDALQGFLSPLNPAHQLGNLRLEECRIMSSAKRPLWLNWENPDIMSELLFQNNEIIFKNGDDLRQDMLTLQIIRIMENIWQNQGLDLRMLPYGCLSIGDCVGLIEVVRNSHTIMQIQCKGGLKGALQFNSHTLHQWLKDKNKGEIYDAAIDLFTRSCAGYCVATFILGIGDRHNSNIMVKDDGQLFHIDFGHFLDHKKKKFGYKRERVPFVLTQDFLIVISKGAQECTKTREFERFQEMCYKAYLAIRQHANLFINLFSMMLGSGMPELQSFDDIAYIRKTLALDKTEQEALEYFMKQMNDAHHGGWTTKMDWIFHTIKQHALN
PI3Kα (p110α/p85α), sequence (P27986 whole entry partner): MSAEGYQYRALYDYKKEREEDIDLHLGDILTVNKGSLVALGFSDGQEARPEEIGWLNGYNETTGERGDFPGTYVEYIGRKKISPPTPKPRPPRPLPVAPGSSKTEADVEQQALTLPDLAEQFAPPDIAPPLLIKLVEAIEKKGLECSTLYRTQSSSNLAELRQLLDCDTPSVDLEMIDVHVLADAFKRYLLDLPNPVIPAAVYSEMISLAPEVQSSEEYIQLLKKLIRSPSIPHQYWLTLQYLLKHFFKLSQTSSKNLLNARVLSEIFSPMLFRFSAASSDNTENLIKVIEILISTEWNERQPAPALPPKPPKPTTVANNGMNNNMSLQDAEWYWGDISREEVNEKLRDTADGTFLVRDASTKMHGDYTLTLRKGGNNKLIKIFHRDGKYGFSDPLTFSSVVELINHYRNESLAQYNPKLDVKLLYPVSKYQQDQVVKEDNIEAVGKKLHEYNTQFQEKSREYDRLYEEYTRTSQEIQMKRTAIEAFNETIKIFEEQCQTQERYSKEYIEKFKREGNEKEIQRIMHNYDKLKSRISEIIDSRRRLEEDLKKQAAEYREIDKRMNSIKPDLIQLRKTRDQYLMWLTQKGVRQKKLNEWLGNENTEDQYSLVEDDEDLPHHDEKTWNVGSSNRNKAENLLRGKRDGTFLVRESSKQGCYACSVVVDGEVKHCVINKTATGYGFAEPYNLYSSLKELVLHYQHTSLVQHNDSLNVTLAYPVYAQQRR

| Structure (SMILES) | pIC50 [1] | IC50 (Akt-pS473 in U87MG cells) [nM] | pIC50 (U87MG tumour cells) | PI3Ka IC50 (PI3Kα (p110α/p85α)) [nM] | inhibition at 1 µM (Akt-pS473 in U87MG cells; read-out: U87 Akt-pS473 % Inhibition) [%] |
| --- | --- | --- | --- | --- | --- |
| CCN1CC(C)(C)Oc2nc(N3[C@@H]4CC[C@H]3COC4)nc(-c3ccc(NC(=O)Nc4ccncc4F)cc3)c2C1=O [Example 75, 1-[4-((1S,5R)-6-Ethyl-8,8-dimethyl-2-3-oxa-8-azabicyclo[3.2.1]oct-8-yl-5-oxo-5,6,7,8-tetrahydro-9-oxa-1,3,6-triazabenzocyclohepten-4-yl)phenyl]-3-(3-fluoropyridin-4-yl)urea] | 7.40 | 8 | 7.33 | 5570 | – |
| CCN1CC(C)(C)Oc2nc(N3CC4CCC(C3)O4)nc(-c3ccc(NC(=O)Nc4ccon4)c(F)c3)c2C1=O [Example 135, 1-{4-[6-Ethyl-8,8-dimethyl-2-(8-oxa-3-azabicyclo[3.2.1]oct-3-yl)-5-oxo-5,6,7,8-tetrahydro-9-oxa-1,3,6-triazabenzocyclohepten-4-yl]-2-fluorophenyl}-3-isoxazol-3-ylurea] | 7.96 | 26 | 6.95 | 6525 | – |
| CCN1CC(C)(C)Oc2nc(N3CC4CCC(C3)O4)nc(-c3ccc(NC(=O)Nc4ccc(OC)cn4)cc3)c2C1=O [Example 44, 1-{4-[6-Ethyl-8,8-dimethyl-2-(8-oxa-3-azabicyclo[3.2.1]oct-3-yl)-5-oxo-5,6,7,8-tetrahydro-9-oxa-1,3,6-triazabenzocyclohepten-4-yl]phenyl}-3-(5-methoxypyridin-2-yl)urea] | 7.47 | 40 | 6.66 | >10000 | – |
| COc1ccnc(NC(=O)Nc2ccc(-c3nc(N4C5CCC4COC5)nc4c3C(=O)N(C)CC(C)(C)O4)cc2)c1 [Example 70, 1-(4-Methoxypyridin-2-yl)-3-{4-[6,8,8-trimethyl-2-(3-oxa-8-azabicyclo[3.2.1]oct-8-yl)-5-oxo-5,6,7,8-tetrahydro-9-oxa-1,3,6-triazabenzocyclohepten-4-yl]phenyl}urea] | 7.57 | 40 | 6.54 | >10000 | – |
| CCN1CC(C)(C)Oc2nc(N3C[C@@H]4C[C@H]3CO4)nc(-c3ccc(NC(=O)NC)c(F)c3)c2C1=O [Example 206, 1-[4-((1S,4S)-6-Ethyl-8,8-dimethyl-2-2-oxa-5-azabicyclo[2.2.1]hept-5-yl-5-oxo-5,6,7,8-tetrahydro-9-oxa-1,3,6-triazabenzocyclohepten-4-yl)-2-fluorophenyl]-3-methylurea] | 6.84 | – | 5.87 | >10000 | 87 |
| CCN1CC(C)(C)Oc2nc(N3CC4CCC(C3)O4)nc(-c3ccc(NC(=O)Nc4ccccn4)c(F)c3)c2C1=O [Example 158, 1-{4-[6-Ethyl-8,8-dimethyl-2-(8-oxa-3-azabicyclo[3.2.1]oct-3-yl)-5-oxo-5,6,7,8-tetrahydro-9-oxa-1,3,6-triazabenzocyclohepten-4-yl]-2-fluorophenyl}-3-pyridin-2-ylurea] | 7.19 | 1600 | 5.77 | >10000 | – |
| CCN1CC(C)(C)Oc2nc(N3CC4CCC(C3)O4)nc(-c3ccc(NC(=O)OC[C@H](C)O)c(F)c3)c2C1=O [Example 20, {4-[6-ethyl-8,8-dimethyl-2-(8-oxa-3-azabicyclo[3.2.1]oct-3-yl)-5-oxo-5,6,7,8-tetrahydro-9-oxa-1,3,6-triazabenzocyclohepten-4-yl]-2-fluorophenyl}carbamic acid (S)-2-hydroxypropyl ester] | 6.54 | > 1000 | 5.12 | >10000 | – |
| CCN1CC(C)(C)Oc2nc(N3CC4CCC(C3)O4)nc(-c3ccc(NC(=O)NCC4CCOCC4)c(F)c3)c2C1=O [Example 134, 1-{4-[6-Ethyl-8,8-dimethyl-2-(8-oxa-3-azabicyclo[3.2.1]oct-3-yl)-5-oxo-5,6,7,8-tetrahydro-9-oxa-1,3,6-triazabenzocyclohepten-4-yl]-2-fluorophenyl}-3-(tetrahydropyran-4-ylmethyl)urea] | 5.50 | > 3000 | < 5.00 | >10000 | – |
| CCNC(=O)Nc1ccc(-c2nc(N3CCOC[C@@H]3CC)nc3c2C(=O)N(CC)CC(C)(C)O3)cc1F [Example 151, 1-Ethyl-3-{4-[6-ethyl-2-((S)-3-ethylmorpholin-4-yl)-8,8-dimethyl-5-oxo-5,6,7,8-tetrahydro-9-oxa-1,3,6-triazabenzocyclohepten-4-yl]-2-fluorophenyl}urea] | 6.94 | 82 | 6.27 | >10000 | – |
| CCN1CC(C)(C)Oc2nc(N3CCOC[C@@H]3C)nc(-c3ccc(NC(=O)Nc4cnc(C)cn4)c(F)c3)c2C1=O [Example 167, 1-{4-[6-Ethyl-8,8-dimethyl-2-((S)-3-methylmorpholin-4-yl)-5-oxo-5,6,7,8-tetrahydro-9-oxa-1,3,6-triazabenzocyclohepten-4-yl]-2-fluorophenyl}-3-(5-methylpyrazin-2-yl)urea] | 7.21 | 158 | 6.30 | 3520 | – |
| CCN1CC(C)(C)Oc2nc(N3C4CCC3COC4)nc(-c3ccc(NC(=O)OCCO)cc3)c2C1=O [Example 65, {4-[6-Ethyl-8,8-dimethyl-2-(3-oxa-8-azabicyclo[3.2.1]oct-8-yl)-5-oxo-5,6,7,8-tetrahydro-9-oxa-1,3,6-triazabenzocyclohepten-4-yl]phenyl}carbamic acid 2-hydroxyethyl ester] | 7.57 | 27 | 6.59 | 22400 | – |
| CNC(=O)Nc1ccc(-c2nc(N3C4CCC3COC4)nc3c2C(=O)N(C)CC(C)(C)O3)cc1 [Example 43, 1-Methyl-3-{4-[6,8,8-trimethyl-2-(3-oxa-8-azabicyclo[3.2.1]oct-8-yl)-5-oxo-5,6,7,8-tetrahydro-9-oxa-1,3,6-triazabenzocyclohepten-4-yl]phenyl}urea] | 7.57 | 20 | 7.09 | 4730 | – |
| Cc1ccc(NC(=O)Nc2ccc(-c3nc(N4CC5CCC(C4)O5)nc4c3C(=O)N(C)CC(C)(C)O4)cc2)nc1 [Example 42, 1-(5-Methylpyridin-2-yl)-3-{4-[6,8,8-trimethyl-2-(8-oxa-3-azabicyclo[3.2.1]oct-3-yl)-5-oxo-5,6,7,8-tetrahydro-9-oxa-1,3,6-triazabenzocyclohepten-4-yl]phenyl}urea] | 7.37 | 52 | 6.46 | >10000 | – |
| CCN1CC(C)(C)Oc2nc(N3CC4CCC(C3)O4)nc(-c3ccc(NC(=O)Nc4ccc(N5CCOC[C@@H]5C)nc4)c(F)c3)c2C1=O [Example 29, 1-{4-[6-ethyl-8,8-dimethyl-2-(8-oxa-3-azabicyclo[3.2.1]oct-3-yl)-5-oxo-5,6,7,8-tetrahydro-9-oxa-1,3,6-triazabenzocyclohepten-4-yl]-2-fluorophenyl}-3-[6-((S)-3-methylmorpholin-4-yl)pyridin-3-yl]urea] | 7.42 | 32 | 6.78 | >10000 | – |
| CCN1CC(C)(C)Oc2nc(N3CCOC[C@@H]3C)nc(-c3ccc(NC(=O)Nc4cc(OC)ccc4F)cc3)c2C1=O [Example 213, 1-{4-[6-Ethyl-8,8-dimethyl-2-((S)-3-methylmorpholin-4-yl)-5-oxo-5,6,7,8-tetrahydro-9-oxa-1,3,6-triazabenzocyclohepten-4-yl]phenyl}-3-(2-fluoro-5-methoxyphenyl)urea] | 7.32 | 20 | 6.99 | 991 | – |
| CCN1CC(C)(C)Oc2nc(N3CCOC[C@@H]3C)nc(-c3ccc(NC(=O)NC)c(F)c3)c2C1=O [Example 2, 1-{4-[6-Ethyl-8,8-dimethyl-2-((S)-3-methylmorpholin-4-yl)-5-oxo-5,6,7,8-tetrahydro-9-oxa-1,3,6-triazabenzocyclohepten-4-yl]-2-fluorophenyl}-3-methylurea] | 7.66 | 31 | 6.85 | 547 | – |
| CCN1CC(C)(C)Oc2nc(N3CC4CCC(C3)O4)nc(-c3ccc(NC(=O)Nc4ccc(OCCOC)cn4)cc3)c2C1=O [Example 40, 1-{4-[6-Ethyl-8,8-dimethyl-2-(8-oxa-3-azabicyclo[3.2.1]oct-3-yl)-5-oxo-5,6,7,8-tetrahydro-9-oxa-1,3,6-triazabenzocyclohepten-4-yl]phenyl}-3-[5-(2-methoxyethoxy)pyridin-2-yl]urea] | 7.25 | 59 | 6.56 | >10000 | – |
| COCCN1CC(C)(C)Oc2nc(N3CCOC[C@@H]3C)nc(-c3ccc(NC(=O)Nc4cnn(C)c4)cc3)c2C1=O [Example 201, 1-{4-[6-(2-Methoxyethyl)-8,8-dimethyl-2-((S)-3-methylmorpholin-4-yl)-5-oxo-5,6,7,8-tetrahydro-9-oxa-1,3,6-triazabenzocyclohepten-4-yl]phenyl}-3-(1-methyl-1H-pyrazol-4-yl)urea] | 7.32 | 230 | 6.05 | 813 | – |

Reference: US9120812B2, “Pyrimidooxazocine derivatives as mTOR-inhibitors” (SANOFI, priority 2012, dated 2015)
